According to patent publication US9999622B2, “Pyrazolothiazole compound and medicine comprising same” (NIPPON SHINYAKU CO., LTD., priority 2014, dated 2018):

Assays:
Assay type in all cases: biochemical
JAK2 = target: T1, JAK2 (Homo sapiens, UniProt O60674); assay: JAK tyrosine kinase inhibitory activity in the presence of 1 mM ATP (ELISA), JAK2
T1 construct: purchased Carna Biosciences, Inc
How it was run: (§1)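 ELISA read-out: HRP-labelled anti-phosphotyrosine antibody with TMB, absorbance 450 nm, after 1 h kinase reaction at 30 °C in presence of 1 mM ATP. Kinase diluted to 7.5 nM (JAK1) or 0.75 nM (JAK2/JAK3) in Tris-HCl pH 7.5 buffer with DTT; compounds tested in duplicate.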

JAK1 = target: T2, JAK1 (Homo sapiens, UniProt P23458); assay: JAK tyrosine kinase inhibitory activity in the presence of 1 mM ATP (ELISA), JAK1
T2 construct: purchased Carna Biosciences, Inc
T2 sequence (P23458 whole entry): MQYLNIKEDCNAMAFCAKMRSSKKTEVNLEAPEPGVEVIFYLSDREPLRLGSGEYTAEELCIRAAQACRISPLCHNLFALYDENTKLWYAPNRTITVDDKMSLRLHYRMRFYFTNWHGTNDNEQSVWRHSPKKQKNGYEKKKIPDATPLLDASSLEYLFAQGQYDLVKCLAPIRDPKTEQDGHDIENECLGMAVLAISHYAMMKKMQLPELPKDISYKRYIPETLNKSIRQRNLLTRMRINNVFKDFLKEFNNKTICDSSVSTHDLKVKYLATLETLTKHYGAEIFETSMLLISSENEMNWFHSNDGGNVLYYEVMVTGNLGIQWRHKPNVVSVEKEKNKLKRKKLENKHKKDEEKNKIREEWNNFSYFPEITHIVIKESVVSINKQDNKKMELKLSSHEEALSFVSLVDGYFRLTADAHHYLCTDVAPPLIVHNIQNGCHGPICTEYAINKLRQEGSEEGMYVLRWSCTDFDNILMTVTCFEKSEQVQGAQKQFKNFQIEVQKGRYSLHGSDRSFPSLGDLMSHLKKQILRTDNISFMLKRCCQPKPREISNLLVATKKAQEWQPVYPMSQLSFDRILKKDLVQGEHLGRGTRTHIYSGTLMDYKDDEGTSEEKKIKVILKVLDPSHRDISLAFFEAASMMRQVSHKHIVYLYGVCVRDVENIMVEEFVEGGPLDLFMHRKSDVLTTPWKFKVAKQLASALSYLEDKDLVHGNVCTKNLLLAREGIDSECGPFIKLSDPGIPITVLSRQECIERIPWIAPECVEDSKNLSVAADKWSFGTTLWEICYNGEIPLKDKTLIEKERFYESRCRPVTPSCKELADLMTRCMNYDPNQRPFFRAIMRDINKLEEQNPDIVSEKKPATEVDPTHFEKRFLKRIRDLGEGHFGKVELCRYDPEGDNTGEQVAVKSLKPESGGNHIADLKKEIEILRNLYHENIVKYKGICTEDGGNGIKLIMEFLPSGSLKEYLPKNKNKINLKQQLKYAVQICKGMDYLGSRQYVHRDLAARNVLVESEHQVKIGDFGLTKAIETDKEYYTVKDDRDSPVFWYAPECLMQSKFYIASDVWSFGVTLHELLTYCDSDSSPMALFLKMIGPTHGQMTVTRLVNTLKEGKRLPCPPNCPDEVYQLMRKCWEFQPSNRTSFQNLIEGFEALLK
How it was run: as §1

JAK3 = target: T3, JAK3 (Homo sapiens, UniProt P52333); assay: JAK tyrosine kinase inhibitory activity in the presence of 1 mM ATP (ELISA), JAK3
T3 construct: purchased Carna Biosciences, Inc
T3 sequence (P52333 1-1124): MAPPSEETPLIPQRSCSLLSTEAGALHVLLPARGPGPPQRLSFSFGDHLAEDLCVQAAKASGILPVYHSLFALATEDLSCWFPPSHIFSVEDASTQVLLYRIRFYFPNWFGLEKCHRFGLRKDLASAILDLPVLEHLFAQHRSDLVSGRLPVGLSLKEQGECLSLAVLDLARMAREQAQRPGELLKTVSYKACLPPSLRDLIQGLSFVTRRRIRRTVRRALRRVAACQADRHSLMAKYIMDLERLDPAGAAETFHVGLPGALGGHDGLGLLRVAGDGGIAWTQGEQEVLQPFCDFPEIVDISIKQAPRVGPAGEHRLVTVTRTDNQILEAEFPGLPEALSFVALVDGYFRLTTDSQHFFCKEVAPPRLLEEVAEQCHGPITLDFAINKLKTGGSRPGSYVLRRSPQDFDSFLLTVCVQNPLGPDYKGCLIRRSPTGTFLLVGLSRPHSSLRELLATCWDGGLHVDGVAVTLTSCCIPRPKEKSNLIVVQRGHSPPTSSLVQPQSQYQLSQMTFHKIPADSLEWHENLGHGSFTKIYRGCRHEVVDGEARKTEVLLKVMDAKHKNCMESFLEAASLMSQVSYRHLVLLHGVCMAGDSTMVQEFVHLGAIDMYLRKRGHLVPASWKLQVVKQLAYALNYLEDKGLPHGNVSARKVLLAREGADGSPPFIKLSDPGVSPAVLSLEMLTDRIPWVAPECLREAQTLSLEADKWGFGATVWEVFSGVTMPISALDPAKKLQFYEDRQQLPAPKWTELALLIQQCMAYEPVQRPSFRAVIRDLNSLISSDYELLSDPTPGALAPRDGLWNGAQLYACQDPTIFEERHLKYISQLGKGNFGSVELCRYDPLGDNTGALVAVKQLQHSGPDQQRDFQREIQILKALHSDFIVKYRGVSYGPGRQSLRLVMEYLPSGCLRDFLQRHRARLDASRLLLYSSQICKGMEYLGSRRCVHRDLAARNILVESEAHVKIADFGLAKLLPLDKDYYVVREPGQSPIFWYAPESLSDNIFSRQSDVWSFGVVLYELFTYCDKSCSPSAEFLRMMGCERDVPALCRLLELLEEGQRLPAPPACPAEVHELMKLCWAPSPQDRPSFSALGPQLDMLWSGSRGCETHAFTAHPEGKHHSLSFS
How it was run: as §1

T1 sequence (O60674 whole entry): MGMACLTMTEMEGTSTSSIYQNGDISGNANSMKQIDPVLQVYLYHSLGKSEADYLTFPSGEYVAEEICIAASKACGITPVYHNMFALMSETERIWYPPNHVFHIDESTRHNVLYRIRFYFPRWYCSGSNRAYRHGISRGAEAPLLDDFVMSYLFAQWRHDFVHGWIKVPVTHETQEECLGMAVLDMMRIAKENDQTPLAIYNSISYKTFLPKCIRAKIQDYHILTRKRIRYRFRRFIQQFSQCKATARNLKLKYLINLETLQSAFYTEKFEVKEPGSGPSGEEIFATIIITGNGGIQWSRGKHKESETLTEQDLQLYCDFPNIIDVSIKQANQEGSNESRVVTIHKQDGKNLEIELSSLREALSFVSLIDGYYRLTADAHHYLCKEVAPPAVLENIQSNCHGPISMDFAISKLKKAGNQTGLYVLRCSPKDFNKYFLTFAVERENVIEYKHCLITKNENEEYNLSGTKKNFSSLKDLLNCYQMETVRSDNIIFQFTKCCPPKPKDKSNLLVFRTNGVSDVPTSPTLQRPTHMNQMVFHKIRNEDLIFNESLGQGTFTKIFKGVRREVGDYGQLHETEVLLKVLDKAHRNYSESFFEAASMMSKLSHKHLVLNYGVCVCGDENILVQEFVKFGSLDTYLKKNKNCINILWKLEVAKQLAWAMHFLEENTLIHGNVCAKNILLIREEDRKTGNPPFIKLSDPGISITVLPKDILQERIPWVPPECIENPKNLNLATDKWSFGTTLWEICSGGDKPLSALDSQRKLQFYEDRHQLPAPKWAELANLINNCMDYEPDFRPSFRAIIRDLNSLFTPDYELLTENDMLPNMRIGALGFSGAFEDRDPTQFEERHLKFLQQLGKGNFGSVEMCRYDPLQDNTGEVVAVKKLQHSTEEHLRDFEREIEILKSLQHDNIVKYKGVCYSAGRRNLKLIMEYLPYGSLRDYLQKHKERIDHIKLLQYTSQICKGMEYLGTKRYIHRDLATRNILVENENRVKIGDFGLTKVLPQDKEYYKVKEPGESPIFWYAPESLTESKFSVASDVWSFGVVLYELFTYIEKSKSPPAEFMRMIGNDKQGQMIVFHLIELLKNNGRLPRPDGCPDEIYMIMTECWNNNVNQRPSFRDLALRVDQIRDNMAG

Structure (SMILES)	IC50 (JAK2) [nM]	IC50 (JAK1) [nM]	IC50 (JAK3) [nM]
O=C(NC1CCN(C(=O)c2cc(N[C@H]3CCC[C@@H]3OC(F)F)nc(-c3cnn4ccsc34)n2)CC1)C1CC1 [Example 14, N-(1-{[6-{[(1S,2S)-2-(Difluoromethoxy)cyclopentyl]amino}-2-(pyrazolo[5,1-b][1,3]thiazol-7-yl)pyrimidin-4-yl]carbonyl}piperidin-4-yl)cyclopropanecarboxamide]	1700	69	1500
C[C@@H](Nc1cc(C(=O)N2CCC(NC(=O)OCC(F)(F)F)CC2)nc(-c2cnn3ccsc23)n1)C(C)(C)C [Example 104, 2,2,2-Trifluoroethyl (1-{[6-{[(2R)-3,3-dimethylbutan-2-yl]amino}-2-(pyrazolo[5,1-b][1,3]thiazol-7-yl)pyrimidin-4-yl]carbonyl}piperidin-4-yl)carbamate]	3000	200	3400
COC(=O)NC1CCN(C(=O)c2cc(N[C@H](C)C(C)(C)C)nc(-c3cnn4ccsc34)n2)CC1 [Example 39, Methyl (1-{[6-{[(2R)-3,3-dimethylbutan-2-yl]amino}-2-(pyrazolo[5,1-b][1,3]thiazol-7-yl)pyrimidin-4-yl]carbonyl}piperidin-4-yl)carbamate]	1300	140	2900
O=C(NC1CCN(C(=O)c2cc(OC3CCC3)nc(-c3cnn4ccsc34)n2)CC1)C1CC1 [Example 45, N-(1-{[6-(Cyclobutyloxy)-2-(pyrazolo[5,1-b][1,3]thiazol-7-yl)pyrimidin-4-yl]carbonyl}piperidin-4-yl)cyclopropanecarboxamide]	5700	310	> 10000
CC(C)(CO)Nc1cc(C(=O)N2CCC(NC(=O)C3CC3)CC2)nc(-c2cnn3ccsc23)n1 [Example 48, N-[1-({6-[(1-Hydroxy-2-methylpropan-2-yl)amino]-2-(pyrazolo[5,1-b][1,3]thiazol-7-yl)pyrimidin-4-yl}carbonyl)piperidin-4-yl]cyclopropanecarboxamide]	> 10000	150	> 10000
C[C@@H](Nc1cc(C(=O)N2CCC(NC(=O)OCC(F)(F)F)CC2)nc(-c2cnn3ccsc23)n1)C1CC1 [Example 103, 2,2,2-Trifluoroethyl (1-{[6-{[(1R)-1-cyclopropylethyl]amino}-2-(pyrazolo[5,1-b][1,3]thiazol 7-yl)pyrimidin-4-yl]carbonyl}piperidin-4-yl)carbamate]	2400	140	5900
CC(C)OC(=O)NC1CCN(C(=O)c2cc(N[C@H](C)C(C)(C)C)nc(-c3cnn4ccsc34)n2)CC1 [Example 29, Propan-2-yl (1-{[6-{[(2R)-3,3-dimethylbutan-2-yl]amino}-2-(pyrazolo[5,1-b][1,3]thiazol-7-yl)pyrimidin-4-yl]carbonyl}piperidin-4-yl)carbamate]	1200	140	3000
COC(=O)NC1CCN(C(=O)c2cc(NC(C)(C)CO)nc(-c3cnn4ccsc34)n2)CC1 [Example 61, Methyl [1-({6-[(l-hydroxy-2-methylpropan-2-yl)amino]-2-(pyrazolo[5,1-b][1, 3]thiazol-7-yl)pyrimidin-4-yl}carbonyl)piperidin-4-yl]carbamate]	> 10000	540	9400
CC(C)C(=O)NC1CCN(C(=O)c2cc(NC(C)(C)C)nc(-c3cnn4ccsc34)n2)CC1 [Example 69, N-(1-{[6-(tert-Butylamino)-2-(pyrazolo[5,1-b][1,3]thiazol-7-yl)pyrimidin-4-yl]carbonyl}piperidin-4-yl)-2-methylpropanamide]	3500	810	5700
CC(C)[C@H](C)Nc1cc(C(=O)N2CCC(NC(=O)C3CC3)CC2)nc(-c2cnn3ccsc23)n1 [Example 123, N-(1-{[6-{[(2S)-3-Methylbutan-2-yl]amino}-2-(pyrazolo[5,1-b][1,3]thiazol-7-yl)pyrimidin-4-yl]carbonyl}piperidin-4-yl)cyclopropanecarboxamide]	1400	260	1600

Results, then the compound that gave them:

IC50 (JAK2) [nM]	IC50 (JAK1) [nM]	IC50 (JAK3) [nM]	Structure (SMILES)
> 10000	2600	> 10000	COC(=O)NC1CCN(C(=O)c2cc(N[C@@H]3CCN(C)C3)nc(-c3cnn4ccsc34)n2)CC1 [Example 151, Methyl (1-{[6-{[(3R)-1-methylpyrrolidin-3-yl]amino}-2-(pyrazolo[5,1-b][1,3]thiazol-7-yl)pyrimidin-4-yl]carbonyl}piperidin-4-yl)carbamate]
8500	760	> 10000	CCC(=O)NC1CCN(C(=O)c2cc(NC3(C)CC3)nc(-c3cnn4ccsc34)n2)CC1 [Example 128, N-[1-({6-[(1-Methylcyclopropyl)amino]-2-(pyrazolo[5,1-b][1,3]thiazol-7-yl)pyrimidin-4-yl}carbonyl)piperidin-4-yl]propanamide]
1400	640	4200	CN(C)C(=O)NC1CCN(C(=O)c2cc(NCC(C)(C)C)nc(-c3cnn4ccsc34)n2)CC1 [Example 137, 3-[1-({6-[(2,2-Dimethylpropyl)amino]-2-(pyrazolo[5,1-b][1,3]thiazol-7-yl)pyrimidin-4-yl}carbonyl)piperidin-4-yl]-1,1-dimethylurea]
> 10000	1100	> 10000	COC(=O)NC1CCN(C(=O)c2cc(NC(C)c3ccncc3)nc(-c3cnn4ccsc34)n2)CC1 (stereo not drawn) [Example 162, Methyl 1-[2-(pyrazolo[5,1 b][1,3]thiazol-7-yl)-6-[1-(pyridin-4-yl)ethyl]aminopyrimidine-4-carbonyl]piperidin-4-ylcarbamate]
> 10000	2600	> 10000	O=C(NC1CCN(C(=O)c2cc(NCc3cccs3)nc(-c3cnn4ccsc34)n2)CC1)C1CC1 [Example 159, N-1-[2-(pyrazolo[5,1-b][1,3]thiazol-7-yl)-6-[(thiophen-2-yl)methyl]aminopyrimidine-4-carbonyl]piperidin-4-ylcyclopropanecarboxamide]
> 10000	320	> 10000	COC(=O)NC1CCN(C(=O)c2cc(NC3CCCC3)nc(-c3cnn4ccsc34)n2)CC1 [Example 179, Methyl 1-[6-(cyclopentylamino)-2-(pyrazolo[5,1-b][1,3]thiazol-7-yl)pyrimidine-4-carbonyl]piperidin-4-ylcarbamate]
> 10000	850	> 10000	CC(C)(C)OC(=O)N1CCC(Nc2cc(C(=O)N3CCC(NC(=O)C4CC4)CC3)nc(-c3cnn4ccsc34)n2)CC1 [Example 171, Tert-butyl 4-[6-4-[(cyclopropanecarbonyl)amino]piperidine-1-carbonyl-2-(pyrazolo[5,1-b][1,3]thiazol-7-yl)pyrimidin-4-yl]aminopiperidine-1-carboxylate]
> 10000	410	> 10000	CCCC(=O)N1CC[C@@H](Nc2cc(C(=O)N3CCC(NC(=O)OC)CC3)nc(-c3cnn4ccsc34)n2)C1 [Example 207, Methyl 1-[6-[(3R)-1-butanoylpyrrolidin-3-yl]amino-2-(pyrazolo[5,1-b][1,3]thiazol-7-yl)pyrimidine-4-carbonyl]piperidin-4-ylcarbamate]
> 10000	120	> 10000	COC(=O)NC1CCN(C(=O)c2cc(N[C@@H]3CCN(C(=O)CC#N)C3)nc(-c3cnn4ccsc34)n2)CC1 [Example 201, Methyl 1-[6-[(3R)-1-(cyanoacetyl)pyrrolidin-3-yl]amino-2-(pyrazolo[5,1-b][1,3]thiazol-7-yl)pyrimidine-4-carbonyl]piperidin-4-ylcarbamate]
> 10000	2400	> 10000	COC(=O)NC1CCN(C(=O)c2cc(NC3CCN(S(C)(=O)=O)CC3)nc(-c3cnn4ccsc34)n2)CC1 [Example 200, Methyl 1-[6-[1-(methanesulfonyl)piperidin-4-yl]amino-2-(pyrazolo[5,1-b][1,3]thiazol-7-yl)pyrimidine-4-carbonyl]piperidin-4-ylcarbamate]
